Reference: US10662193B2, “Carbazole and carboline compounds for use in the diagnosis, treatment, alleviation or prevention of disorders associated with amyloid or amyloid-like proteins” (AC IMMUNE SA, priority 2014, dated 2020)
pKi: −log10 of the molar value.

Legend:
[1] = test system: tau tangles on AD brain section; assay: Assay 1: displacement of RefA on human AD brain sections (fluorescence); type: binding; conditions: for Selectivity (tau/Abeta): ratio of competition on tau tangles to competition on Aβ plaques
How it was run: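 Braak V-VI AD amygdala frozen sections were preincubated with test compound at 250 μM in 50% ethanol for 20 min at room temperature. Fluorescent RefA at 1 μM in 50% ethanol was then added for 20 min, imaged at 470 nm excitation, and tangles were quantified.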

[2] = test system: Aβ plaques on AD brain section; assay: Assay 1: displacement of Compound B on human AD brain sections (fluorescence); type: binding
How it was run: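 Frozen […] amygdala sections from Braak V-VI AD donors were preincubated with test compound at 250 μM in 50% ethanol for 20 min at room temperature, then with fluorescent Compound B at 1 μM for 20 min. Staining read at 365 nm excitation; plaques quantified by image analysis.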

AD brain-enriched PHF = AD brain-enriched PHF (Homo sapiens, UniProt P10636); assay: Assay 2 (filter trap): [3H]RefA radio-binding competition assay and Ki on PHF; conditions: [^3H]RefA 10 nM, PHF diluted 1/80, compound 0.12 nM to 50 μM
AD brain-enriched PHF, sequence (P10636 623-708 limits assumed): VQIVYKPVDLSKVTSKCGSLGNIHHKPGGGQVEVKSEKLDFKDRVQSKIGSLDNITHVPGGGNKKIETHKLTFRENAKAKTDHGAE
Experimental: Displacement of [^3H]RefA by Compounds of this Invention
50 g of frontal lobe tissue from post-mortem brain of an Alzheimer's disease (AD) patient were obtained from the London Tissue Bank. The patient was a […] and died […]. The brain sample was collected 5 hours post-mortem and characterized for Braak disease stage (Braak, H.; Braak, E. Acta Neuropathol., 1991, 82, 239-259) as stage VI. For the enrichment of PHF's, around 15 g of the AD human brain was thawed on ice and homogenized with 50 ml of homogenization buffer [0.75 M NaCl in RAB buffer (100 mM 2-(N-morpholino) ethanesulfonic acid (MES), 1 mM EGTA, 0.5 mM MgSO4, 2 mM DTT, pH 6.8) supplemented with protease inhibitors (Complete; Roche 11697498001) in a glass Dounce homogenizer. The homogenate was then incubated at 4° C. for 20 min to let any residual microtubules depolymerize, before the homogenate was transferred into polycarbonate centrifuge bottles (16×76 mm; Beckman 355603) and centrifuged at 11,000 g (12,700 RPM) in an ultracentrifuge (Beckman, XL100K) for 20 min at 4° C. using the pre-cooled 70.1 rotor (Beckman, 342184). Pellets were kept on ice. Supernatants were pooled into polycarbonate bottles and centrifuged again at 100,000 g (38,000 RPM) for 1 h at 4° C. in the 70.1 Ti rotor to isolate PHF-rich pellets, whereas soluble tau remained in the supernatants. The pellets from the first and second centrifugations were re-suspended in 120 mL of extraction buffer [10 mM Tris-HCl pH 7.4, 10% sucrose, 0.85 M NaCl, 1% protease inhibitor (Calbiochem 539131), 1 mM EGTA, 1% phosphatase inhibitor (Sigma P5726 and P0044)]. The solution was then transferred into polycarbonate centrifuge bottles (16×76 mm; Beckman 355603) and centrifuged at 15,000 g (14,800 RPM) in an ultracentrifuge (Beckman, XL100K) for 20 min at 4° C. using the 70.1 Ti rotor. In the presence of 10% sucrose and at low speed centrifugation, most PHF remained in the supernatant whereas intact or fragmented NFTs and larger PHF aggregates were pelleted. The pellets were discarded. 20% Sarkosyl (Sigma L7414-10ML) was added to the supernatants to a final concentration of 1% and stirred at room temperature for 1 h. This solution was then centrifuged into polycarbonate bottles at 100,000 g (38,000 RPM) for 1 h at 4° C. in the 70.1 Ti rotor, and the pellets containing PHF-rich material were re-suspended in a total final volume of 1.5 mL of PBS, aliquoted and stored at −80° C.
[^3H]RefA Radio-Binding Competition Assay
AD brain-enriched PHF diluted 1/80 were incubated in the presence of [^3H]RefA at 10 nM and the example compounds of this invention at 2.5 μM (250× excess), for 45 minutes at 37° C. Samples were then analyzed by on GF/B filter plates as described above (in the section “[^3H]RefA radio-binding assay and determination of the dissociation constant (Kd)). Non-specific signal was determined again with an excess of un-labeled RefA and specific binding calculated by subtracting the non-specific signal from the total signal. Competition was calculated as percent, where 0% was defined as the specific binding in the presence of vehicle (2.8% DMSO in PBS) and 100% as the values obtained in the presence of excess cold RefA. Similar assays were performed to determine the competition of the cold compounds on [^3H]RefA on in vitro aggregated recombinant human tau or Abeta1-42 For both recombinant proteins, 20 μg/mL of aggregates were incubated with 10 nM of [^3H]RefA for recombinant human tau or 80 nM of [^3H]RefA for recombinant human Abeta1-42.
Determination of the Binding Affinity (Ki)
Samples were then analyzed on GF/B filter plates as described above and Ki values calculated using Prism V5 (GraphPad).

| SMILES | Competition on AD brain section tau tangles (1 μM RefA vs. 250 μM compound) [1] | Selectivity (tau/Abeta) [1] | Competition on AD brain section Aβ plaques (1 μM Compound B vs 250 μM compound) [2] | pKi (AD brain-enriched PHF) |
| --- | --- | --- | --- | --- |
| Cn1c2ccncc2c2ccc(Nc3ccc(F)c(F)c3)nc21 [Example 2] | 96% | >96 fold | 0% | 7.66 |
| Cn1c2ccncc2c2ccc(Nc3cccc(OCCF)c3)nc21 [Example 8] | 90% | ~15 fold | 6% | 7.59 |
| Cn1c2ccncc2c2ccc(Nc3ccc(OC(F)F)cc3)nc21 [Example 9] | 97% | >97 fold | 0% | 8.11 |
